# Organism: Rattus norvegicus
# Assay: DrugMatrix - Regimen: Daily Repeat
# Type: toxicity, organism-based, Sprague-Dawley
# Design: regimen Daily Repeat, gender Male, age 6-8 weeks
# Conditions: in vivo, po, route oral GAVAGE, […]; for POTASSIUM / SODIUM / TOTAL BILIRUBIN / TOTAL PROTEIN / URIC ACID / ALANINE AMINOTRANSFERASE / ALBUMIN / ALKALINE PHOSPHATASE / ASPARTATE AMINOTRANSFERASE / BLOOD UREA NITROGEN / CARBON DIOXIDE / CHLORIDE / CHOLESTEROL / CREATINE PHOSPHOKINASE / CREATININE / GLUCOSE / LIPASE / PHOSPHORUS / LACTATE DEHYDROGENASE: tissue Plasma; for ABSOLUTE BASOPHIL / ABSOLUTE EOSINOPHIL / ABSOLUTE LYMPHOCYTE / ABSOLUTE MONOCYTE / BASOPHIL / EOSINOPHIL / ERYTHROCYTE COUNT / HEMATOCRIT / HEMOGLOBIN / LEUKOCYTE COUNT / LYMPHOCYTE / MEAN CORPUSCULAR HEMOGLOBIN / MEAN CORPUSCULAR HEMOGLOBIN CONCENTRATION / MEAN CORPUSCULAR VOLUME / MONOCYTE / NEUTROPHIL / PLATELET COUNT: tissue Blood
# [1] = 0 mg/kg, 72 h, dose level Control, time 3 day
# [2] = 0 mg/kg, 120 h, dose level Control, time 5 day
# [3] = 0 mg/kg, dose level Control, time 14 day
# [4] = 15 mg/kg, 72 h, dose level High, time 3 day
# [5] = 15 mg/kg, 120 h, dose level High, time 5 day
# [6] = 15 mg/kg, dose level High, time 14 day
compound,measurement,setting,value
CC(CCc1ccc(O)cc1)NCCc1ccc(O)c(O)c1 (configuration not stated) [DOBUTAMINE],POTASSIUM,[1],6.13 MEQ/L
same,SODIUM,[1],145 MEQ/L
same,TOTAL BILIRUBIN,[1],0.43 mg/dL
same,TOTAL PROTEIN,[1],6.7 G/DL
same,URIC ACID,[1],0.83 mg/dL
same,ABSOLUTE BASOPHIL,[2],33.3 cells/µL
same,ABSOLUTE EOSINOPHIL,[2],56.7 cells/µL
same,ABSOLUTE LYMPHOCYTE,[2],9220 cells/µL
same,ABSOLUTE MONOCYTE,[2],230 cells/µL
same,BASOPHIL,[2],0.3%
same,EOSINOPHIL,[2],0.5%
same,ERYTHROCYTE COUNT,[2],6.62 x10E6/uL
same,HEMATOCRIT,[2],46.43%
same,HEMOGLOBIN,[2],14.3 G/DL
same,LEUKOCYTE COUNT,[2],10.96 x10E3/uL
same,LYMPHOCYTE,[2],83.83%
same,MEAN CORPUSCULAR HEMOGLOBIN,[2],21.57 pg
same,MEAN CORPUSCULAR HEMOGLOBIN CONCENTRATION,[2],30.77 G/DL
same,MEAN CORPUSCULAR VOLUME,[2],70.13 fL
same,MONOCYTE,[2],2.1%
same,NEUTROPHIL,[2],12.53%
same,PLATELET COUNT,[2],1056.67 x10E3/uL
same,ALANINE AMINOTRANSFERASE,[2],41.33 u/L
same,ALBUMIN,[2],4.07 G/DL
same,ALKALINE PHOSPHATASE,[2],603.33 u/L
same,ASPARTATE AMINOTRANSFERASE,[2],80 u/L
same,BLOOD UREA NITROGEN,[2],14.67 mg/dL
same,CARBON DIOXIDE,[2],43 mmol/L
same,CHLORIDE,[2],104 MEQ/L
same,CHOLESTEROL,[2],88.33 mg/dL
same,CREATINE PHOSPHOKINASE,[2],391.67 u/L
same,CREATININE,[2],0.47 mg/dL
same,GLUCOSE,[2],156 mg/dL
same,LIPASE,[2],10.67 u/L
same,PHOSPHORUS,[2],9.03 mg/dL
same,POTASSIUM,[2],6.1 MEQ/L
same,SODIUM,[2],145.67 MEQ/L
same,TOTAL BILIRUBIN,[2],0.37 mg/dL
same,TOTAL PROTEIN,[2],6.53 G/DL
same,URIC ACID,[2],0.5 mg/dL
same,ABSOLUTE BASOPHIL,[3],73.3 cells/µL
same,ABSOLUTE EOSINOPHIL,[3],60 cells/µL
same,ABSOLUTE LYMPHOCYTE,[3],12200 cells/µL
same,ABSOLUTE MONOCYTE,[3],250 cells/µL
same,BASOPHIL,[3],0.5%
same,EOSINOPHIL,[3],0.37%
same,ERYTHROCYTE COUNT,[3],7.33 x10E6/uL
same,HEMATOCRIT,[3],44.3%
same,HEMOGLOBIN,[3],14.77 G/DL
same,LEUKOCYTE COUNT,[3],14.86 x10E3/uL
same,LYMPHOCYTE,[3],81.87%
same,MEAN CORPUSCULAR HEMOGLOBIN,[3],20.2 pg
same,MEAN CORPUSCULAR HEMOGLOBIN CONCENTRATION,[3],33.33 G/DL
same,MEAN CORPUSCULAR VOLUME,[3],60.57 fL
same,MONOCYTE,[3],1.63%
same,NEUTROPHIL,[3],14.93%
same,PLATELET COUNT,[3],1101.67 x10E3/uL
same,ALANINE AMINOTRANSFERASE,[3],31.67 u/L
same,ALBUMIN,[3],3.83 G/DL
same,ALKALINE PHOSPHATASE,[3],430.67 u/L
same,ASPARTATE AMINOTRANSFERASE,[3],87 u/L
same,BLOOD UREA NITROGEN,[3],14.33 mg/dL
same,CARBON DIOXIDE,[3],39 mmol/L
same,CHLORIDE,[3],104 MEQ/L
same,CHOLESTEROL,[3],66 mg/dL
same,CREATINE PHOSPHOKINASE,[3],441.67 u/L
same,CREATININE,[3],0.7 mg/dL
same,GLUCOSE,[3],125.67 mg/dL
same,LACTATE DEHYDROGENASE,[3],397.67 u/L
same,LIPASE,[3],12.33 u/L
same,PHOSPHORUS,[3],9.87 mg/dL
same,POTASSIUM,[3],5.93 MEQ/L
same,SODIUM,[3],145 MEQ/L
same,TOTAL BILIRUBIN,[3],0.37 mg/dL
same,TOTAL PROTEIN,[3],6.27 G/DL
same,URIC ACID,[3],0.67 mg/dL
same,ABSOLUTE BASOPHIL,[4],23.3 cells/µL
same,ABSOLUTE EOSINOPHIL,[4],50 cells/µL
same,ABSOLUTE LYMPHOCYTE,[4],6060 cells/µL
same,ABSOLUTE MONOCYTE,[4],170 cells/µL
same,BASOPHIL,[4],0.3%
same,EOSINOPHIL,[4],0.67%
same,ERYTHROCYTE COUNT,[4],6.67 x10E6/uL
same,HEMATOCRIT,[4],46.03%
same,HEMOGLOBIN,[4],14.2 G/DL
same,LEUKOCYTE COUNT,[4],8.35 x10E3/uL
same,LYMPHOCYTE,[4],72.8%
same,MEAN CORPUSCULAR HEMOGLOBIN,[4],21.33 pg
same,MEAN CORPUSCULAR HEMOGLOBIN CONCENTRATION,[4],30.87 G/DL
same,MEAN CORPUSCULAR VOLUME,[4],69.1 fL
same,MONOCYTE,[4],2.07%
same,NEUTROPHIL,[4],23.9%
same,PLATELET COUNT,[4],1110.33 x10E3/uL
same,ALANINE AMINOTRANSFERASE,[4],48.33 u/L
same,ALBUMIN,[4],4.07 G/DL
same,ALKALINE PHOSPHATASE,[4],498.67 u/L
same,ASPARTATE AMINOTRANSFERASE,[4],85.67 u/L
same,BLOOD UREA NITROGEN,[4],18.67 mg/dL
same,CARBON DIOXIDE,[4],41.67 mmol/L
same,CHLORIDE,[4],105 MEQ/L
same,CHOLESTEROL,[4],71.67 mg/dL
same,CREATINE PHOSPHOKINASE,[4],568.67 u/L
same,CREATININE,[4],0.6 mg/dL
same,GLUCOSE,[4],196 mg/dL
same,LIPASE,[4],199.67 u/L
same,PHOSPHORUS,[4],9.2 mg/dL
same,POTASSIUM,[4],5.77 MEQ/L
same,SODIUM,[4],147.67 MEQ/L
same,TOTAL BILIRUBIN,[4],0.43 mg/dL
same,TOTAL PROTEIN,[4],6.67 G/DL
same,URIC ACID,[4],0.6 mg/dL
same,ABSOLUTE BASOPHIL,[5],26.7 cells/µL
same,ABSOLUTE EOSINOPHIL,[5],26.7 cells/µL
same,ABSOLUTE LYMPHOCYTE,[5],7530 cells/µL
same,ABSOLUTE MONOCYTE,[5],170 cells/µL
same,BASOPHIL,[5],0.27%
same,EOSINOPHIL,[5],0.33%
same,ERYTHROCYTE COUNT,[5],6.8 x10E6/uL
same,HEMATOCRIT,[5],46.17%
same,HEMOGLOBIN,[5],14.17 G/DL
same,LEUKOCYTE COUNT,[5],9.18 x10E3/uL
same,LYMPHOCYTE,[5],82.07%
same,MEAN CORPUSCULAR HEMOGLOBIN,[5],20.87 pg
same,MEAN CORPUSCULAR HEMOGLOBIN CONCENTRATION,[5],30.73 G/DL
same,MEAN CORPUSCULAR VOLUME,[5],67.93 fL
same,MONOCYTE,[5],1.87%
same,NEUTROPHIL,[5],15%
same,PLATELET COUNT,[5],1523.67 x10E3/uL
same,ALANINE AMINOTRANSFERASE,[5],40.67 u/L
same,ALBUMIN,[5],4.2 G/DL
same,ALKALINE PHOSPHATASE,[5],613.33 u/L
same,ASPARTATE AMINOTRANSFERASE,[5],74.67 u/L
same,BLOOD UREA NITROGEN,[5],17 mg/dL
same,CARBON DIOXIDE,[5],40.67 mmol/L
same,CHLORIDE,[5],107.33 MEQ/L
same,CHOLESTEROL,[5],84.33 mg/dL
same,CREATINE PHOSPHOKINASE,[5],393 u/L
same,CREATININE,[5],0.53 mg/dL
same,GLUCOSE,[5],174.33 mg/dL
same,LIPASE,[5],199.33 u/L
same,PHOSPHORUS,[5],10.1 mg/dL
same,POTASSIUM,[5],6.07 MEQ/L
same,SODIUM,[5],149.33 MEQ/L
same,TOTAL BILIRUBIN,[5],0.4 mg/dL
same,TOTAL PROTEIN,[5],6.73 G/DL
same,URIC ACID,[5],0.87 mg/dL
same,ABSOLUTE BASOPHIL,[6],52 cells/µL
same,ABSOLUTE EOSINOPHIL,[6],40 cells/µL
same,ABSOLUTE LYMPHOCYTE,[6],9620 cells/µL
same,ABSOLUTE MONOCYTE,[6],200 cells/µL
same,BASOPHIL,[6],0.42%
same,EOSINOPHIL,[6],0.34%
same,ERYTHROCYTE COUNT,[6],7.05 x10E6/uL
same,HEMATOCRIT,[6],43.9%
same,HEMOGLOBIN,[6],14.6 G/DL
same,LEUKOCYTE COUNT,[6],12.04 x10E3/uL
same,LYMPHOCYTE,[6],79.76%
same,MEAN CORPUSCULAR HEMOGLOBIN,[6],20.7 pg
same,MEAN CORPUSCULAR HEMOGLOBIN CONCENTRATION,[6],33.26 G/DL
same,MEAN CORPUSCULAR VOLUME,[6],62.28 fL
same,MONOCYTE,[6],1.68%
same,NEUTROPHIL,[6],17.28%
same,PLATELET COUNT,[6],1124.2 x10E3/uL
same,ALANINE AMINOTRANSFERASE,[6],35 u/L
same,ALBUMIN,[6],4.04 G/DL
same,ALKALINE PHOSPHATASE,[6],405.4 u/L
same,ASPARTATE AMINOTRANSFERASE,[6],77.8 u/L
same,BLOOD UREA NITROGEN,[6],14 mg/dL
same,CARBON DIOXIDE,[6],43.2 mmol/L
same,CHLORIDE,[6],103 MEQ/L
same,CHOLESTEROL,[6],69.8 mg/dL
same,CREATINE PHOSPHOKINASE,[6],325.8 u/L
same,CREATININE,[6],0.8 mg/dL
same,GLUCOSE,[6],144.4 mg/dL
same,LACTATE DEHYDROGENASE,[6],182.2 u/L
same,LIPASE,[6],12.2 u/L
same,PHOSPHORUS,[6],10.48 mg/dL
same,POTASSIUM,[6],6.04 MEQ/L
same,SODIUM,[6],147 MEQ/L
same,TOTAL BILIRUBIN,[6],0.36 mg/dL
same,TOTAL PROTEIN,[6],6.56 G/DL
same,URIC ACID,[6],0.66 mg/dL

# From ChEMBL document CHEMBL3885881, “DrugMatrix”
